Experimental data as given in ChEMBL document CHEMBL5291721, “A preclinical secondary pharmacology resource illuminates target-adverse drug reaction associations of marketed drugs” (Nat Commun, 2023).
One block for each compound: values may come before it.

How the values were obtained:
[1] = biological target: T1, Alpha-2A adrenergic receptor (Homo sapiens, UniProt P08913)
T1 sequence (P08913 whole entry): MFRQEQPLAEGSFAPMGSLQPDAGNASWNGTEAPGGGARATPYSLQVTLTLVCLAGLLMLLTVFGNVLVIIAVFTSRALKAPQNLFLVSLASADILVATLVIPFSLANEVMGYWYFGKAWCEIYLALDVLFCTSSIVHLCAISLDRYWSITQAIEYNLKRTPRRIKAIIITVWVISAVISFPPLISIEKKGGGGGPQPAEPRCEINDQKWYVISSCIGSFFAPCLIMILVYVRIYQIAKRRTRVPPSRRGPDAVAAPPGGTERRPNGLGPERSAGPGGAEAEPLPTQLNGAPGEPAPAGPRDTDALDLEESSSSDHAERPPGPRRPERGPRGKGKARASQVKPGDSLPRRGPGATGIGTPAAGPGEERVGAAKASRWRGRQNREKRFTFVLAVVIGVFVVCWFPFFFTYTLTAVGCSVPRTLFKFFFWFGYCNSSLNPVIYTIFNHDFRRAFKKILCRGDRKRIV

[2] = biological target: 3',5'-cyclic-AMP phosphodiesterase 4A (Homo sapiens, UniProt P27815); type: functional
[3] = biological target: T2, Alpha-1A adrenergic receptor (Homo sapiens, UniProt P35348); type: functional, cell-based
T2 sequence (P35348 whole entry): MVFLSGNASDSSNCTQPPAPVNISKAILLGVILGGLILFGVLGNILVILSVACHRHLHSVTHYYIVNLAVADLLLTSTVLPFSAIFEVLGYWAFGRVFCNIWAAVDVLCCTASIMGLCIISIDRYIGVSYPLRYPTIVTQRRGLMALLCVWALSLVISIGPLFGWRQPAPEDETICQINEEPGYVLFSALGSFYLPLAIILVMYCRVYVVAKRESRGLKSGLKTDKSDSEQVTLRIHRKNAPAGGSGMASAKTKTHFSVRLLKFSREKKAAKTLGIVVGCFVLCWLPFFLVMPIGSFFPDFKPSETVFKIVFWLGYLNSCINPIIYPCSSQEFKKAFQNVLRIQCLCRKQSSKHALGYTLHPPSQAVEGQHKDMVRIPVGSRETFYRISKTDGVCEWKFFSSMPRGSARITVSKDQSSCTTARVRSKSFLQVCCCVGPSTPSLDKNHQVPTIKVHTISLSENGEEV

[4] = biological target: T2, Alpha-1A adrenergic receptor; type: functional, cell-based; remark: listed apart in the source
Thromboxane A2 receptor [5] = biological target: T3, Thromboxane A2 receptor (Homo sapiens, UniProt P21731); type: functional, cell-based
T3 sequence (P21731 whole entry): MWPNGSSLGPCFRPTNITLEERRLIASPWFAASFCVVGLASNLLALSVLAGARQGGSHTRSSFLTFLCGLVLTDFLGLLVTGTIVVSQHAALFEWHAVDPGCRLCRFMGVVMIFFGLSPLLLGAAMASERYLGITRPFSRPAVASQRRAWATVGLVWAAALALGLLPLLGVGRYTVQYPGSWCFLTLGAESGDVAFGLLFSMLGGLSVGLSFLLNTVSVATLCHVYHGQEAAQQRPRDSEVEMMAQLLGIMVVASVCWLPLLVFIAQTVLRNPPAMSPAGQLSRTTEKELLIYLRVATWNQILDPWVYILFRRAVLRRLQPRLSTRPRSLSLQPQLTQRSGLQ

Thromboxane A2 receptor [6] = biological target: T3, Thromboxane A2 receptor; type: functional, cell-based; remark: listed apart in the source
Cannabinoid receptor 1 = Cannabinoid receptor 1 (Homo sapiens, UniProt P21554)
Thromboxane A2 receptor [7] = biological target: T3, Thromboxane A2 receptor
Vasopressin V2 receptor = Vasopressin V2 receptor (Homo sapiens, UniProt P30518)
D(1A) dopamine receptor = D(1A) dopamine receptor (Homo sapiens, UniProt P21728)
[8] = biological target: Voltage-dependent L-type calcium channel subunit alpha-1C (Rattus norvegicus, UniProt P22002); type: functional
[9] = biological target: 5-hydroxytryptamine receptor 2B (Homo sapiens, UniProt P41595); type: functional, cell-based
[10] = biological target: Gamma-aminobutyric acid receptor subunit alpha-1 (Rattus norvegicus, UniProt P62813)
Prothrombin = Prothrombin (Homo sapiens, UniProt P00734); type: functional
[11] = biological target: T2, Alpha-1A adrenergic receptor; type: functional, cell-based; remark: listed apart in the source
Mu-type opioid receptor = Mu-type opioid receptor (Homo sapiens, UniProt P35372)
Histamine H3 receptor [12] = biological target: T4, Histamine H3 receptor (Homo sapiens, UniProt Q9Y5N1)
Histamine H3 receptor [13] = biological target: T4, Histamine H3 receptor; remark: listed apart in the source
Also: assay procedure not described here.

Chain of Cannabinoid receptor 1 (P21554 whole entry): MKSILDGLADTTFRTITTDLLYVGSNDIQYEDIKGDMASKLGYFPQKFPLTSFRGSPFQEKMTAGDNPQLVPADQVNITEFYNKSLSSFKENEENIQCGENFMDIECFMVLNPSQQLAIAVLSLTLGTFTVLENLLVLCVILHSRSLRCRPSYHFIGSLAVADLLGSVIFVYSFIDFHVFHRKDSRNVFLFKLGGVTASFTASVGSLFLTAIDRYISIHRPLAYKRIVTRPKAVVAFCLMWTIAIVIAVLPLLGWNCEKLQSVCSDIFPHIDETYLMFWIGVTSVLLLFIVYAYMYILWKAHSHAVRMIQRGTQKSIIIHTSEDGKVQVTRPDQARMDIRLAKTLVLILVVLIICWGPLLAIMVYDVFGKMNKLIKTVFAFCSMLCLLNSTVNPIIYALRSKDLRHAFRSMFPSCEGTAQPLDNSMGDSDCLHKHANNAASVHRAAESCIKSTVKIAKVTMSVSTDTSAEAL
Chain of Vasopressin V2 receptor (P30518 whole entry): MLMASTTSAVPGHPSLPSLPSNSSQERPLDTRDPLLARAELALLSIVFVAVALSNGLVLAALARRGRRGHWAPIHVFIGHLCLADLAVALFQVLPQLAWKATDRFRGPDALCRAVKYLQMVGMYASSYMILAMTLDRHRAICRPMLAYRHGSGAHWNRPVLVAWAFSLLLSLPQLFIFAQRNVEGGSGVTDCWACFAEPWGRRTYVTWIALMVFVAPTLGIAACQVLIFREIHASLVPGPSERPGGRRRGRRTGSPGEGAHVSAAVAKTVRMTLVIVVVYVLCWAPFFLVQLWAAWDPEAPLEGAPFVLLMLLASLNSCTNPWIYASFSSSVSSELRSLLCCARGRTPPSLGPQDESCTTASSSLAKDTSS
Chain of Gamma-aminobutyric acid receptor subunit alpha-1 (P62813 whole entry): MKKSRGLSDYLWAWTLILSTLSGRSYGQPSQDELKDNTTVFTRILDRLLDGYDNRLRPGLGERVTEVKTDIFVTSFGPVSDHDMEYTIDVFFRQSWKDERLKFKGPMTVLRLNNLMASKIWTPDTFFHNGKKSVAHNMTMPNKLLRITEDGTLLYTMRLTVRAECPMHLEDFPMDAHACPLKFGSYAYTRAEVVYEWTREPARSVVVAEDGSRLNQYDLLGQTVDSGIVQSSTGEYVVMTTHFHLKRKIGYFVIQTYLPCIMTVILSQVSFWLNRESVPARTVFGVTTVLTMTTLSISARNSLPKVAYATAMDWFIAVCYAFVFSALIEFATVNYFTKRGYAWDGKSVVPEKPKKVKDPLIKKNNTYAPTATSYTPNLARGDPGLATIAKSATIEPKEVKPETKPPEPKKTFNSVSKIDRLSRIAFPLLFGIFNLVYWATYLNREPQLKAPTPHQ
T4 sequence (Q9Y5N1 whole entry): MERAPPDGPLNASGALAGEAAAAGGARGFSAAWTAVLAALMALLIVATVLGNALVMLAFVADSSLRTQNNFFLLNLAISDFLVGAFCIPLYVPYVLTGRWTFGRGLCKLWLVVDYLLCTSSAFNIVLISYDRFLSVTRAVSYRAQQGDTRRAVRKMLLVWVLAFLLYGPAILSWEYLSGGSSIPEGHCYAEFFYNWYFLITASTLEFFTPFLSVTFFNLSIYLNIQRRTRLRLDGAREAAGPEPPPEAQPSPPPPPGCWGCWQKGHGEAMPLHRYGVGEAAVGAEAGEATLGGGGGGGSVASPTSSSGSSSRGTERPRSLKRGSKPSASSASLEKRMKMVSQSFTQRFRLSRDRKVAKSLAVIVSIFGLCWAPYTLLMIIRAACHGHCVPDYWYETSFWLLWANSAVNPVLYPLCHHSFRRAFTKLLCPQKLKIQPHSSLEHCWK
Chain of 5-hydroxytryptamine receptor 2B (P41595 whole entry): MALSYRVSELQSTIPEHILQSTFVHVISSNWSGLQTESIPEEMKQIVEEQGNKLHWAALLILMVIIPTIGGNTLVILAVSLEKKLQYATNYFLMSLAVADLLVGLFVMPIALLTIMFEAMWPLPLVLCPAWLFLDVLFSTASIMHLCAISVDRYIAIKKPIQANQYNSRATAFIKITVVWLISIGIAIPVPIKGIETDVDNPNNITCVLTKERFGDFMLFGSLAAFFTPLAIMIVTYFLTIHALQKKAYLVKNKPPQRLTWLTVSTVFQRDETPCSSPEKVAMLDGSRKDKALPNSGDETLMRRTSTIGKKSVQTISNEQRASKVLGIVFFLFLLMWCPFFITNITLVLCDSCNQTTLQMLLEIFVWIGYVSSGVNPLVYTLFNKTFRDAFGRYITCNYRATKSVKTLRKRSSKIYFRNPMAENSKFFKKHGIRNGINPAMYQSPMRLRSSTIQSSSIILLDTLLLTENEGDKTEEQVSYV
Chain of Voltage-dependent L-type calcium channel subunit alpha-1C (P22002 whole entry): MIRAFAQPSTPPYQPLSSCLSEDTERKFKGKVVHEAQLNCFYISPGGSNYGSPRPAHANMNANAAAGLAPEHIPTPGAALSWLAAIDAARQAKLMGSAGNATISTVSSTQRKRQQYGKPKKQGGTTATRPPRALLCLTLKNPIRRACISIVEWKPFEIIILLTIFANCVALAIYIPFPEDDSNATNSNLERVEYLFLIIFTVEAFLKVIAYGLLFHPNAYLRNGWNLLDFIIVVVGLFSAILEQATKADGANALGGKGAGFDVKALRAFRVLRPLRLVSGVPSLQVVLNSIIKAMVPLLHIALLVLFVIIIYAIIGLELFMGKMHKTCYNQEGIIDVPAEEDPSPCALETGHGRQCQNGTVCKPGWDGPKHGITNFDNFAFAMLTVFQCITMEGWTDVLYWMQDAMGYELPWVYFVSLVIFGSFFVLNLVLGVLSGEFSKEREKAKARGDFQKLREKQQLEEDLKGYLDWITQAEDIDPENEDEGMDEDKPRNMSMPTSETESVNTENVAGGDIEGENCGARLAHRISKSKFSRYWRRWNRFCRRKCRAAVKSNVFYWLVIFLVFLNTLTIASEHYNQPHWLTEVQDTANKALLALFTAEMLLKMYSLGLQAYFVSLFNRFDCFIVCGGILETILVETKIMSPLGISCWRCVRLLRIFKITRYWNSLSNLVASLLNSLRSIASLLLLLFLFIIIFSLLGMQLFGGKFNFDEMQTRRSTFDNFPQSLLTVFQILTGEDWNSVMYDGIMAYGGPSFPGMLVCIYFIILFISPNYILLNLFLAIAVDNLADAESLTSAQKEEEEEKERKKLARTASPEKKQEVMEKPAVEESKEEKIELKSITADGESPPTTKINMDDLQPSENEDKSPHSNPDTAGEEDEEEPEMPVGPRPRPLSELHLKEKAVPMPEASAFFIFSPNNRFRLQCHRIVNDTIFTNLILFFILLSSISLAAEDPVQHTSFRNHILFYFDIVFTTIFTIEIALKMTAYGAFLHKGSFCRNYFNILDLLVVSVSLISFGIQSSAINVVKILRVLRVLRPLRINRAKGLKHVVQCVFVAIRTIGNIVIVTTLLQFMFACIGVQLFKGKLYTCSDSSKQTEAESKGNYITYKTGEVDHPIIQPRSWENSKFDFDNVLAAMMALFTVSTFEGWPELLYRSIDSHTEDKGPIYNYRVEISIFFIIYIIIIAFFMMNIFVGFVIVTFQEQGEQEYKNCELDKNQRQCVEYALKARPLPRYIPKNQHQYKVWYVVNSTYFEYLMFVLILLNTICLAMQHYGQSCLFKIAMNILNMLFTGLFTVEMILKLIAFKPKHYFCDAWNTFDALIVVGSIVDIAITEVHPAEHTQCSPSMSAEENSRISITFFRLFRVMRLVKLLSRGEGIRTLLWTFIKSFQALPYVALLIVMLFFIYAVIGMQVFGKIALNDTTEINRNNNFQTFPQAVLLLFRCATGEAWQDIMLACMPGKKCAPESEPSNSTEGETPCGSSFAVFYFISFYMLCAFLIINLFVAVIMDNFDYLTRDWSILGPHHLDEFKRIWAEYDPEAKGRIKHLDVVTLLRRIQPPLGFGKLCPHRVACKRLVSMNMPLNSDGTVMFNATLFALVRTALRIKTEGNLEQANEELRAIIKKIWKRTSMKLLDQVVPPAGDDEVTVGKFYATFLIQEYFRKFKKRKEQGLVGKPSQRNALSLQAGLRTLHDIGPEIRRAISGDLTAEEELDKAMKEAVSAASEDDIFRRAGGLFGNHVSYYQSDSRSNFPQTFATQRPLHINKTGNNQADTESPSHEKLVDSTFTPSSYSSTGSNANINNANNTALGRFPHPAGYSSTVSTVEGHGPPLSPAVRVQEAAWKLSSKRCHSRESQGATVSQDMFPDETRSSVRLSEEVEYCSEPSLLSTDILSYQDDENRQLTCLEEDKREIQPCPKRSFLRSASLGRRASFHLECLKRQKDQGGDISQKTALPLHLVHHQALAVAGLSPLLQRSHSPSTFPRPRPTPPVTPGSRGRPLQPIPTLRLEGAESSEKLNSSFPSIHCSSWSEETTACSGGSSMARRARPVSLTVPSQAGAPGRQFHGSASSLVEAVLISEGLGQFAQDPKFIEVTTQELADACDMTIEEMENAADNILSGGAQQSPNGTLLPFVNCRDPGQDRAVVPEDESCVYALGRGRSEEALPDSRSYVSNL
Chain of Mu-type opioid receptor (P35372 whole entry): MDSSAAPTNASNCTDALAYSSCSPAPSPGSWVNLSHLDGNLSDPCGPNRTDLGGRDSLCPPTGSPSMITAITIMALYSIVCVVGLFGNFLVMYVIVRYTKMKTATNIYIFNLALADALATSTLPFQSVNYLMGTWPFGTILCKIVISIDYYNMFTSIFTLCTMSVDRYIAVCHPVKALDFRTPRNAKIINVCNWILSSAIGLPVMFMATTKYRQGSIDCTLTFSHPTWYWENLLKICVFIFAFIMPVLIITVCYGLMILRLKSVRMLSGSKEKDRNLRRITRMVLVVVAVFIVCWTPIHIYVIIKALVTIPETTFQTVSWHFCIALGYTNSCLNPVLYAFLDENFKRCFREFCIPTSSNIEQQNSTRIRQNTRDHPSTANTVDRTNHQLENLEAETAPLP

Compound: CS(=O)(=O)c1ccc(C2=C(c3ccccc3)C(=O)OC2)cc1 [ROFECOXIB]
AC50 [1]: > 30 µM
AC50 [2]: > 30 µM
AC50 [3]: > 30 µM
AC50 [4]: > 30 µM
AC50 (Thromboxane A2 receptor [5]): > 30 µM
AC50 (Thromboxane A2 receptor [6]): > 30 µM
AC50 (Cannabinoid receptor 1): > 10 µM
AC50 (Thromboxane A2 receptor [7]): > 30 µM
AC50 (Vasopressin V2 receptor): > 30 µM
AC50 (D(1A) dopamine receptor): > 30 µM
AC50 [8]: > 10 µM
AC50 [9]: > 30 µM
AC50 [10]: > 10 µM
AC50 (Prothrombin): > 30 µM
AC50 [11]: > 30 µM
AC50 (Mu-type opioid receptor): > 30 µM
AC50 (Histamine H3 receptor [12]): > 10 µM
AC50 (Histamine H3 receptor [13]): > 30 µM

Compound: CCOC(=O)[C@H](CCc1ccccc1)N[C@@H](C)C(=O)N1[C@H](C(=O)O)C[C@@H]2CCC[C@@H]21
AC50 (Cannabinoid receptor 1): > 10 µM
AC50 (Thromboxane A2 receptor [7]): > 30 µM
AC50 (Vasopressin V2 receptor): > 30 µM
AC50 [8]: > 10 µM
AC50 [9]: > 10 µM
AC50 [10]: > 10 µM
AC50 [11]: > 30 µM
AC50 (Histamine H3 receptor [12]): > 10 µM

Compound: CC(C)C[C@H]1C(=O)N2CCC[C@H]2[C@]2(O)O[C@](NC(=O)[C@@H]3C=C4c5cccc6[nH]c(Br)c(c56)C[C@H]4N(C)C3)(C(C)C)C(=O)N12 [BROMOCRIPTINE]
AC50 [2]: > 30 µM
AC50 [4]: 1.07 µM
AC50 (Thromboxane A2 receptor [5]): 18.8 µM
AC50 (Thromboxane A2 receptor [6]): > 3 µM
AC50 (Cannabinoid receptor 1): > 10 µM
AC50 (Thromboxane A2 receptor [7]): > 30 µM
AC50 (Vasopressin V2 receptor): > 30 µM
AC50 (D(1A) dopamine receptor): 2.37 µM
AC50 [8]: > 10 µM
AC50 [9]: 0.538 µM
AC50 [10]: > 10 µM
AC50 (Prothrombin): > 30 µM
AC50 [11]: 0.844 µM
AC50 (Mu-type opioid receptor): 3.45 µM
AC50 (Histamine H3 receptor [12]): > 30 µM
AC50 (Histamine H3 receptor [13]): > 30 µM

Compound: C[C@@H](O)[C@H]1C(=O)N2C(C(=O)O)=C(S[C@@H]3CN[C@H](C(=O)N(C)C)C3)[C@H](C)[C@H]12 [MEROPENEM]
AC50 (Cannabinoid receptor 1): > 10 µM
AC50 (Thromboxane A2 receptor [7]): > 10 µM
AC50 (Vasopressin V2 receptor): > 10 µM
AC50 [8]: > 10 µM
AC50 [9]: > 300 µM
AC50 [10]: > 10 µM
AC50 [11]: > 300 µM
AC50 (Histamine H3 receptor [12]): > 300 µM

Compound: CC1=C(C(=O)O)N2C(=O)[C@@H](NC(=O)[C@H](N)c3ccccc3)[C@H]2SC1 [CEPHALEXIN ANHYDROUS]
AC50 (Cannabinoid receptor 1): > 10 µM
AC50 (Thromboxane A2 receptor [7]): > 30 µM
AC50 (Vasopressin V2 receptor): > 30 µM
AC50 [8]: > 10 µM
AC50 [10]: > 10 µM
AC50 [11]: > 30 µM
AC50 (Histamine H3 receptor [12]): > 10 µM

The next lines start with the values.

AC50 (Cannabinoid receptor 1): > 10 µM
AC50 (Thromboxane A2 receptor [7]): > 30 µM
AC50 (Vasopressin V2 receptor): > 30 µM
AC50 [8]: > 10 µM
AC50 [9]: > 10 µM
AC50 [10]: > 10 µM
AC50 [11]: > 30 µM
AC50 (Histamine H3 receptor [12]): > 10 µM
Compound: C[C@]12CCC(=O)C=C1CC[C@@H]1[C@@H]2[C@@H](O)C[C@@]2(C)[C@H]1CC[C@]2(O)C(=O)CO [HYDROCORTISONE]

AC50 (Cannabinoid receptor 1): > 10 µM
AC50 (Thromboxane A2 receptor [7]): > 30 µM
AC50 (Vasopressin V2 receptor): > 30 µM
AC50 [8]: > 10 µM
AC50 [9]: > 10 µM
AC50 [10]: > 10 µM
AC50 [11]: > 30 µM
AC50 (Histamine H3 receptor [12]): 11 µM
Compound: CN(C)CCC(c1ccc(Cl)cc1)c1ccccn1 (stereo not drawn) [CHLORPHENIRAMINE]
